This is an account of results in patent publication US20140235863A1, “SUBSTITUTED 4-ARYLTHIAZOLES AND PROCESS OF PREPARATION THEREOF” (priority 2011, published 2014).

The subject of data set [1] is M. tuberculosis H37Rv. Description: Agar dilution assay (ADA), MIC. Type of data set: cell-based, Mycobacterium tuberculosis. Conditions: for MIC / Mtb H37Rv MIC: 37° C., 4 weeks; for MIC: read-out: Mtb H37Rv MIC; for anti-TB activity relative to the drug NTZ (times better / more potent): MIC compared with NTZ MIC 52.12 μM.
The nature of data set [2]: Cytotoxicity, Resazurin assay. It counts as cell-based, monkey. The following applies: monkey, Resazurin assay, 72 h; read-out: In vitro cytotoxicity Vero cells CC50. How it is done: (§1) Cytotoxicity Studies: The compounds for cytotoxicity were tested in an in vitro model for toxicity with Vero monkey kidney cells using Resazurin assay. […] Cells were exposed to dilutions of experimental and control drugs in triplicate for […] with each compound at a range of concentrations from 100-1.56 μg/ml. […] Each well had 100 μL of the test material in serially descending concentrations. After 72 h of incubation, 10 μL of Resazurin indicator solution (0.1%) was added and incubation was continued for 4-5 h. Any color change from purple to pink or colorless was recorded as positive. Fluorescence was measured of each sample with excitation wavelength at 530 nm and emission wavelength at 590 nm using the BMG Polar Star Galaxy. The CC50 values (50% inhibitory concentrations) were calculated by plotting fluorescence values using Microsoft excel template. The data from this toxicity testing and MIC values were used to calculate a selectivity index (SI), the ratio of CC50: MIC.

The test system of a further data set is Vero monkey kidney cells. As to the kind of experiment: Cytotoxicity, Resazurin assay. Type of data set: cell-based. The following applies: for cytotoxicity to Vero cells: FIG. 4; for selectivity index (SI): ratio CC50:MIC as stated in text b128 (fits BACTEC MIC); for SI (selectivity index): ratio CC50:MIC, Table 1 (agar dilution MIC). How it is done:
as §1

The test system of data set [3] is M. tuberculosis H37Rv. Description: BACTEC-460TB radiometric assay, MIC and growth index. Type of data set: cell-based, Mycobacterium tuberculosis. The following applies: for Mtb growth inhibition, growth index (GI) vs days: day 1 to day 11, FIG. 5; for MIC: Mycobacterium tuberculosis, H37RV, BACTEC-460TB radiometric assay, read-out: Mtb H37Rv MIC (BACTEC).
For data set [4], the system named is replicating and nonreplicating Mtb. The following applies: cited from earlier work.
Where [5] appears, read: Mycobacterium tuberculosis, H37RV, 672 h.

Structures are written as SMILES. ≈ marks a conversion by molar mass, not a printed value. Where “and” joins values, the source holds several entries; their conditions need not be identical. Equal values may be shown once.

For `COc1ccc(-c2csc(Nc3ccccc3C(F)(F)F)n2)cc1` [Compound 8d, 4-(4-methoxyphenyl)-N-(2-(trifluoromethyl)phenyl)thiazol-2-amine], in the data set on M. tuberculosis H37Rv [1] (setting [5]), the minimal inhibitory concentration (MIC) is > 12.5 µg/mL.

As for `Fc1ccc(-c2csc(NN=Cc3cn(Cc4ccc(Cl)cc4Cl)c4ccccc34)n2)cc1` [Compound 2c, 2-(2-((1-(2,4-dichlorobenzyl)-1H-indol-3-yl)methylene)hydrazinyl)-4-(4-fluorophenyl)thiazole], the melting point was determined as 198 °C. The “Mtb H37Rv MIC” value in the data set with M. tuberculosis H37Rv [1] was >12.50 µg/mL. For the same compound, the MIC in the data set with M. tuberculosis H37Rv [1] (setting [5]) is > 12.5 µg/mL.

On to `COc1cccc2c1CCCC2=NNc1nc(-c2ccc(F)cc2)cs1` [Compound 1c, 4-(4-fluorophenyl)-2-(2-(5-methoxy-3,4-dihydronaphthalen-1(2H)-ylidene)hydrazinyl)thiazole], for which the melting point is 198 °C. The CC50 at 72 h in data set [2] was > 244 µM. Also, the CC50 in the data set on Vero monkey kidney cells (Resazurin assay, 72 h, read-out: In vitro cytotoxicity Vero cells CC50) was > 300 µM. Moreover, in the data set on Vero monkey kidney cells (Resazurin assay), the “cytotoxicity to Vero cells” value is recorded as “failed to show any cytotoxicity”. Further, in the data set on Vero monkey kidney cells, the “selectivity index (SI)” value is on record as ≥ 48 and the “SI (selectivity index)” value is reported as “≧17”. Moreover, the “Mtb growth inhibition, growth index (GI) vs days” value with M. tuberculosis H37Rv [3] (6.25 μM) was “comparatively lesser effective on day 10 onwards”. Also, in the data set on M. tuberculosis H37Rv [3], the MIC worked out at 6.25 µM (≈ 2.3 µg/mL). In addition, the MIC in the data set with M. tuberculosis H37Rv [1] (listed as is) worked out at 17.03 µM. Also, in the data set with M. tuberculosis H37Rv [1] (setting [5]), the MIC was 17 µM and 6.25 µg/mL.

`COc1ccc(-c2csc(Nc3cc(OC)ccc3OC)n2)cc1` [Compound 7c, N-(2,5-dimethoxyphenyl)-4-(4-methoxyphenyl)thiazol-2-amine]: the melting point was found to be 104 °C. Moreover, the MIC in the data set with M. tuberculosis H37Rv [1] (setting [5]) is > 12.5 µg/mL.

In turn, `COc1ccc(-c2csc(NN=Cc3cn(Cc4ccc(Cl)cc4Cl)c4ccccc34)n2)cc1OC` [Compound 2a, 2-(2-((1-(2,4-dichlorobenzyl)-1H-indol-3-yl)methylene)hydrazinyl)-4-(3,4-dimethoxyphenyl)thiazole] gave a melting point of 205 °C. Besides, in the data set on M. tuberculosis H37Rv [1], the “Mtb H37Rv MIC” value is >12.50 µg/mL. Besides, the minimum inhibitory concentration (MIC) in the data set on M. tuberculosis H37Rv [1] (setting [5]) is > 12.5 µg/mL.

For the compound `Fc1ccc(Nc2nc(-c3ccc(F)cc3)cs2)cc1` [Compound 6, N,4-bis(4-fluorophenyl)thiazol-2-amine], the melting point amounted to 127 °C. The MIC in the data set on M. tuberculosis H37Rv [3] turned out to be 12.5 µM (≈ 3.6 µg/mL). The “Mtb growth inhibition, growth index (GI) vs days” value in the data set on M. tuberculosis H37Rv [3] (≧12.5 μM) is “effectively inhibit Mtb growth till day 11”. For the same compound, the “anti-TB activity relative to the drug NTZ (times better / more potent)” value in the data set with M. tuberculosis H37Rv [1] is reported as “about 9 times”. In the data set with M. tuberculosis H37Rv [1] (setting [5]), the minimum inhibitory concentration (MIC) was 6.25 µM and 1.8 µg/mL.

For the compound `COc1cccc2c1CCCC2=NNc1nc(-c2cccc([N+](=O)[O-])c2)cs1` [Compound 1d, 2-(2-(5-methoxy-3,4-dihydronaphthalen-1(2H)-ylidene)hydrazinyl)-4-(3-nitrophenyl)thiazole], the melting point came to 185 °C. Moreover, the “anti-TB activity relative to the drug NTZ (times better / more potent)” value with M. tuberculosis H37Rv [1] is recorded as “about 2 times”. Moreover, the minimal inhibitory concentration (MIC) in the data set with M. tuberculosis H37Rv [1] (setting [5]) is 31.7 µM and 12.5 µg/mL.

With `NNC(=O)c1ccncc1` [Isoniazid (INH), Isoniazid, reference compound], the MIC with M. tuberculosis H37Rv [1] (setting [5]) is < 1 µg/mL.

For `O=C(Nc1ncc([N+](=O)[O-])s1)c1ccccc1O` [Tizaxonide (TIZ), Tizaxonide], the “MIC of reference NTZ/TIZ, Mtb H37Rv” value in data set [4] (replicating Mtb, literature value listed with the agar dilution data) was 60.38 μM and 16.00 μg/mL.

`Clc1ccc(Cn2cc(C=NNc3nc(-c4ccc(Cl)cc4Cl)cs3)c3ccccc32)c(Cl)c1` [Compound 2b, 2-(2-((1-(2,4-dichlorobenzyl)-1H-indol-3-yl)methylene)hydrazinyl)-4-(2,4-dichlorophenyl)thiazole] had a melting point of 185 °C. In the data set with M. tuberculosis H37Rv [1] (setting [5]), the MIC is 22.9 µM and 12.5 µg/mL.

In the case of `[H]/N=C(/N)N[C@H]1[C@H](O)[C@@H](O)[C@H](O[C@@H]2O[C@@H](C)[C@](O)(C=O)[C@H]2O[C@@H]2O[C@@H](CO)[C@H](O)[C@@H](O)[C@@H]2NC)[C@@H](N/C(N)=N\[H])[C@@H]1O` [Streptomycin (SM), Streptomycin, reference compound], the MIC in the data set with M. tuberculosis H37Rv [3] was determined as 6 µM (≈ 3.49 µg/mL).

Compound `COc1cccc2c1CCCC2=NNc1nc(-c2ccc(Cl)cc2Cl)cs1` [Compound 1b, 4-(2,4-dichlorophenyl)-2-(2-(5-methoxy-3,4-dihydronaphthalen-1(2H)-ylidene)hydrazinyl)thiazole] had a melting point of 200 °C. Further, in the data set on M. tuberculosis H37Rv [1], the “anti-TB activity relative to the drug NTZ (times better / more potent)” value is given as “about 2 times”. For the same compound, the MIC in the data set with M. tuberculosis H37Rv [1] (setting [5]) was 29.9 µM and 12.5 µg/mL.

As to `CC(=O)Oc1ccccc1C(=O)Nc1ncc([N+](=O)[O-])s1` [Nitazoxanide (NTZ), Nitazoxanide], the MIC in data set [4] (nonreplicating Mtb) is 60.38 μM and 16 μg/mL.

On to `COc1ccc(OC)c(Nc2nc(-c3cccc([N+](=O)[O-])c3)cs2)c1` [Compound 7b, N-(2,5-dimethoxyphenyl)-4-(3-nitrophenyl)thiazol-2-amine], for which the melting point came out at 154 °C. The MIC in the data set on M. tuberculosis H37Rv [1] (setting [5]) was > 12.5 µg/mL.

In turn, `COc1ccc(OC)c(Nc2nc(-c3ccc(F)cc3)cs2)c1` [Compound 7a, N-(2,5-dimethoxyphenyl)-4-(4-fluorophenyl)thiazol-2-amine] gave a melting point of 160 °C. Besides, in the data set with M. tuberculosis H37Rv [1] (setting [5]), the MIC is > 12.5 µg/mL.

Regarding `Fc1ccc(-c2csc(Nc3ccccc3C(F)(F)F)n2)cc1` [Compound 8b, 4-(4-fluorophenyl)-N-(2-(trifluoromethyl)phenyl)thiazol-2-amine], the melting point was found to be 184 °C. Further, the MIC with M. tuberculosis H37Rv [1] (setting [5]) was > 12.5 µg/mL.

For `O=[N+]([O-])c1cccc(-c2csc(Nc3ccccc3C(F)(F)F)n2)c1` [Compound 8c, 4-(3-nitrophenyl)-N-(2-(trifluoromethyl)phenyl)thiazol-2-amine], the melting point is 182 °C. For the same compound, in the data set with M. tuberculosis H37Rv [1] (setting [5]), the MIC is > 12.5 µg/mL.

On to `COc1ccc(-c2csc(Nc3ccccc3C(F)(F)F)n2)cc1OC` [Compound 8a, 4-(3,4-dimethoxyphenyl)-N-(2-(trifluoromethyl)phenyl)thiazol-2-amine], for which the melting point worked out at 188 °C. For the same compound, the MIC in the data set with M. tuberculosis H37Rv [1] (setting [5]) is > 12.5 µg/mL.

`COc1ccc(-c2csc(NN=C3CCCc4c(OC)cccc43)n2)cc1OC` [Compound 1a, 4-(3,4-dimethoxyphenyl)-2-(2-(5-methoxy-3,4-dihydronaphthalen-1(2H)-ylidene)hydrazinyl)-thiazole]: the melting point was 200 °C. Moreover, the CC50 at 72 h in data set [2] was > 244 µM. Further, the “cytotoxicity to Vero cells” value in the data set with Vero monkey kidney cells (Resazurin assay) was “failed to show any cytotoxicity”. Moreover, in the data set with Vero monkey kidney cells, the “selectivity index (SI)” value was ≥ 39 and the “SI (selectivity index)” value is on record as “≧16”. Also, the “Mtb growth inhibition, growth index (GI) vs days” value with M. tuberculosis H37Rv [3] (6.25 μM) is reported as “very effective for inhibiting the Mtb growth till day 11”. In addition, the MIC in the data set on M. tuberculosis H37Rv [3] came out at 6.25 µM (≈ 2.56 µg/mL). In the data set with M. tuberculosis H37Rv [1] (setting [5]), the MIC is 15.3 µM and 6.25 µg/mL.
